Reference: US8338565B2, “Macrocyclic compounds for inhibition of tumor necrosis factor alpha” (Ensemble Therapeutics Corporation, priority 2008, dated 2012)
Numbered stars: 1 amine (or outer) side, 2 acyl side, 3 side chain; on linkers, the order of the positions; unused ones are H or OH. Bridge positions count the residues as written; N and C are the ends. Square brackets hold non-standard residues; d marks the D form. Peptide text beside a SMILES is read from it. Tartaroyl(2R,3R-(OAc)2) = CC(=O)O[C@@H](C(=O)[*:1])[C@@H](OC(C)=O)C(=O)[*:2]; Phe(4-COOH) = N[C@@H](Cc1ccc(C(=O)O)cc1)C(=O)O; Bip = N[C@@H](Cc1ccc(-c2ccccc2)cc1)C(=O)O; dBip = N[C@H](Cc1ccc(-c2ccccc2)cc1)C(=O)O; dPhe(4-NH2) = Nc1ccc(C[C@@H](N)C(=O)O)cc1; dPhe(4-Br) = N[C@H](Cc1ccc(Br)cc1)C(=O)O; Phe(4-NH2) = Nc1ccc(C[C@H](N)C(=O)O)cc1; d(hPhe) = N[C@H](CCc1ccccc1)C(=O)O; hPhe = N[C@@H](CCc1ccccc1)C(=O)O; 3Pal = N[C@@H](Cc1cccnc1)C(=O)O; 2Thi = N[C@@H](Cc1cccs1)C(=O)O; d2Thi = N[C@H](Cc1cccs1)C(=O)O; Suc = O=C(CCC(=O)[*:2])[*:1]; GABA = NCCCC(=O)O; βAla = NCCC(=O)O

Each molecule was assayed against T1, TNFα / TNFα receptor (TNFα R1/Fc) (Homo sapiens, UniProt P01375) (assay: Inhibition of binding of TNFα to the TNFα receptor (plate ELISA competition)). Settings: Table 2; read-out: Activity (IC50, inhibition of TNFα binding to TNFα R1/Fc).
T1 construct: purchased R&D Systems
Summary of the method: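 Plates were coated with TNFα at 15 nM. Test compound and 8.33 nM receptor-Fc (PBST, 2% DMSO) were first mixed in solution for 30 min at room temperature, then transferred to the plates for another 30 min. Competition was read by absorbance at 450 nm after HRP anti-human IgG Fc detection with TMB.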

T1 sequence (P01375 77-233 limits assumed, species assumed): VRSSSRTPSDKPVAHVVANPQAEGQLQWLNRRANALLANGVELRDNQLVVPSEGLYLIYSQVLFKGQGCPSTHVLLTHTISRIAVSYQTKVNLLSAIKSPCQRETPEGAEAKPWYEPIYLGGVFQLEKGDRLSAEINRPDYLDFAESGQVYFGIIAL

Compound	IC50
O=C1COc2ccc(cc2)C[C@@H](C(=O)O)NC(=O)[C@H](Cc2ccccc2)NC(=O)[C@H](Cc2cccc(C(F)(F)F)c2)NC(=O)[C@H](Cc2cccs2)N1 [Compound 400]	< 10 µM
O=C(O)CCNC(=O)[C@@H]1Cc2ccc(cc2)NC(=O)[C@H](O)[C@@H](O)C(=O)N[C@H](Cc2cccs2)C(=O)N[C@@H](Cc2ccc(-c3ccccc3)cc2)C(=O)N[C@H](CCc2ccccc2)C(=O)N1 [Compound 401]	< 10 µM
O=C(O)CCCNC(=O)[C@@H]1Cc2ccc(cc2)NC(=O)[C@H](O)[C@@H](O)C(=O)N[C@H](Cc2cccs2)C(=O)N[C@@H](Cc2ccc(-c3ccccc3)cc2)C(=O)N[C@H](CCc2ccccc2)C(=O)N1 [Compound 402]	10 to 30 µM
O=C1CCC(=O)N[C@H](CCc2ccccc2)C(=O)N[C@@H](Cc2ccc(-c3ccccc3)cc2)C(=O)N[C@H](Cc2ccccc2)C(=O)N[C@H](C(=O)N[C@@H](Cc2cccnc2)C(=O)O)Cc2ccc(cc2)N1 [Compound 403] ([d(hPhe)][Bip][dF][Phe(4-NH2)][3Pal]-OH; linker N-4 via Suc)	> 100 µM
O=C1COc2ccc(cc2)C[C@@H](C(=O)NCC2(C(=O)O)CC2)NC(=O)[C@@H](CCc2ccccc2)NC(=O)[C@H](Cc2ccc(-c3ccccc3)cc2)NC(=O)[C@@H](Cc2cccs2)N1 [Compound 404]	< 10 µM
O=C(O)[C@H](Cc1cccnc1)NC(=O)[C@@H]1Cc2ccc(cc2)NC(=O)[C@H](O)[C@@H](O)C(=O)N[C@H](Cc2cccs2)C(=O)N[C@@H](Cc2ccc(-c3ccccc3)cc2)C(=O)N[C@H](CCc2ccccc2)C(=O)N1 [Compound 405]	> 100 µM
COc1ccc(C[C@@H]2NC(=O)[C@H](Cc3cccs3)NC(=O)COc3ccc(cc3)C[C@@H](C(=O)O)NC(=O)[C@H](Cc3ccccc3)NC2=O)cc1OC [Compound 406]	> 100 µM
COc1cccc(C[C@H]2NC(=O)[C@H](Cc3cccs3)NC(=O)COc3ccc(cc3)C[C@@H](C(=O)O)NC(=O)[C@H](Cc3ccccc3)NC2=O)c1 [Compound 407]	> 100 µM
COc1cccc(C[C@@H]2NC(=O)[C@H](Cc3cccs3)NC(=O)COc3ccc(cc3)C[C@@H](C(=O)O)NC(=O)[C@H](Cc3ccccc3)NC2=O)c1 [Compound 408]	> 100 µM
CC(=O)O[C@H]1C(=O)Nc2ccc(cc2)C[C@H](C(=O)N[C@@H](Cc2ccccc2)C(=O)O)NC(=O)[C@@H](CCc2ccccc2)NC(=O)[C@H](Cc2ccc(-c3ccccc3)cc2)NC(=O)[C@@H](Cc2cccs2)NC(=O)[C@@H]1OC(C)=O [Compound 409] ([d2Thi][Bip][d(hPhe)][dPhe(4-NH2)]F-OH; linker N-4 via Tartaroyl(2R,3R-(OAc)2))	< 10 µM
CC(=O)O[C@H]1C(=O)Nc2ccc(cc2)C[C@H](C(=O)N[C@@H](Cc2ccccc2)C(=O)O)NC(=O)[C@H](CCc2ccccc2)NC(=O)[C@@H](Cc2ccc(-c3ccccc3)cc2)NC(=O)[C@H](Cc2cccs2)NC(=O)[C@@H]1OC(C)=O [Compound 411] ([2Thi][dBip][hPhe][dPhe(4-NH2)]F-OH; linker N-4 via Tartaroyl(2R,3R-(OAc)2))	> 100 µM
CC(=O)O[C@H]1C(=O)Nc2ccc(cc2)C[C@@H](C(=O)N[C@@H](Cc2ccccc2)C(=O)O)NC(=O)[C@H](CCc2ccccc2)NC(=O)[C@@H](Cc2ccc(-c3ccccc3)cc2)NC(=O)[C@H](Cc2cccs2)NC(=O)[C@@H]1OC(C)=O [Compound 412] ([2Thi][dBip][hPhe][Phe(4-NH2)]F-OH; linker N-4 via Tartaroyl(2R,3R-(OAc)2))	< 10 µM
CC(=O)O[C@H]1C(=O)Nc2ccc(cc2)C[C@H](C(=O)N[C@@H](Cc2ccccc2)C(=O)O)NC(=O)[C@H](Cc2ccccc2)NC(=O)[C@@H](Cc2ccc(-c3ccccc3)cc2)NC(=O)[C@H](Cc2cccs2)NC(=O)[C@@H]1OC(C)=O [Compound 413] ([2Thi][dBip]F[dPhe(4-NH2)]F-OH; linker N-4 via Tartaroyl(2R,3R-(OAc)2))	> 100 µM
CC(=O)O[C@H]1C(=O)Nc2ccc(cc2)C[C@@H](C(=O)N[C@@H](Cc2ccccc2)C(=O)O)NC(=O)[C@H](Cc2ccccc2)NC(=O)[C@@H](Cc2ccc(-c3ccccc3)cc2)NC(=O)[C@H](Cc2cccs2)NC(=O)[C@@H]1OC(C)=O [Compound 414] ([2Thi][dBip]F[Phe(4-NH2)]F-OH; linker N-4 via Tartaroyl(2R,3R-(OAc)2))	> 100 µM
CC(=O)O[C@H]1C(=O)Nc2ccc(cc2)C[C@H](C(=O)N[C@@H](Cc2ccccc2)C(=O)O)NC(=O)[C@H](CCc2ccccc2)NC(=O)[C@@H](Cc2ccc(Br)cc2)NC(=O)[C@H](Cc2cccs2)NC(=O)[C@@H]1OC(C)=O [Compound 415] ([2Thi][dPhe(4-Br)][hPhe][dPhe(4-NH2)]F-OH; linker N-4 via Tartaroyl(2R,3R-(OAc)2))	> 100 µM
CC(=O)O[C@H]1C(=O)Nc2ccc(cc2)C[C@@H](C(=O)N[C@@H](Cc2ccccc2)C(=O)O)NC(=O)[C@H](CCc2ccccc2)NC(=O)[C@@H](Cc2ccc(Br)cc2)NC(=O)[C@H](Cc2cccs2)NC(=O)[C@@H]1OC(C)=O [Compound 416] ([2Thi][dPhe(4-Br)][hPhe][Phe(4-NH2)]F-OH; linker N-4 via Tartaroyl(2R,3R-(OAc)2))	> 100 µM

Compound	IC50
CC(=O)O[C@H]1C(=O)Nc2ccc(cc2)C[C@H](C(=O)N[C@@H](Cc2ccccc2)C(=O)O)NC(=O)[C@H](Cc2ccccc2)NC(=O)[C@@H](Cc2ccc(Br)cc2)NC(=O)[C@H](Cc2cccs2)NC(=O)[C@@H]1OC(C)=O [Compound 417] ([2Thi][dPhe(4-Br)]F[dPhe(4-NH2)]F-OH; linker N-4 via Tartaroyl(2R,3R-(OAc)2))	> 100 µM
CC(=O)O[C@H]1C(=O)Nc2ccc(cc2)C[C@@H](C(=O)N[C@@H](Cc2ccccc2)C(=O)O)NC(=O)[C@H](Cc2ccccc2)NC(=O)[C@@H](Cc2ccc(Br)cc2)NC(=O)[C@H](Cc2cccs2)NC(=O)[C@@H]1OC(C)=O [Compound 418] ([2Thi][dPhe(4-Br)]F[Phe(4-NH2)]F-OH; linker N-4 via Tartaroyl(2R,3R-(OAc)2))	> 100 µM
O=C(O)CCNC(=O)[C@@H]1Cc2ccc(cc2)C(=O)NCCC(=O)N[C@H](CCc2ccccc2)C(=O)N[C@@H](Cc2ccc(-c3ccccc3)cc2)C(=O)N[C@H](Cc2ccccc2)C(=O)N1 [Compound 420] ([βAla][d(hPhe)][Bip][dF][Phe(4-COOH)][βAla]-OH; lactam N-5)	> 100 µM
O=C(O)CCCNC(=O)[C@@H]1Cc2ccc(cc2)C(=O)NCCC(=O)N[C@H](CCc2ccccc2)C(=O)N[C@@H](Cc2ccc(-c3ccccc3)cc2)C(=O)N[C@H](Cc2ccccc2)C(=O)N1 [Compound 421] ([βAla][d(hPhe)][Bip][dF][Phe(4-COOH)][GABA]-OH; lactam N-5)	< 10 µM
O=C1CCNC(=O)c2ccc(cc2)C[C@@H](C(=O)N[C@@H](Cc2ccccc2)C(=O)O)NC(=O)[C@@H](Cc2ccccc2)NC(=O)[C@H](Cc2ccc(-c3ccccc3)cc2)NC(=O)[C@@H](CCc2ccccc2)N1 [Compound 422] ([βAla][d(hPhe)][Bip][dF][Phe(4-COOH)]F-OH; lactam N-5)	< 10 µM
O=C1CCNC(=O)c2ccc(cc2)C[C@@H](C(=O)N[C@H](Cc2ccccc2)C(=O)O)NC(=O)[C@@H](Cc2ccccc2)NC(=O)[C@H](Cc2ccc(-c3ccccc3)cc2)NC(=O)[C@@H](CCc2ccccc2)N1 [Compound 423] ([βAla][d(hPhe)][Bip][dF][Phe(4-COOH)][dF]-OH; lactam N-5)	< 10 µM
O=C(O)CCNC(=O)[C@@H]1Cc2ccc(cc2)C(=O)N[C@H](CCc2ccccc2)C(=O)N[C@@H](Cc2ccc(-c3ccccc3)cc2)C(=O)N[C@H](Cc2ccccc2)C(=O)N1 [Compound 424] ([d(hPhe)][Bip][dF][Phe(4-COOH)][βAla]-OH; lactam N-4)	< 10 µM
O=C(O)CCCNC(=O)[C@@H]1Cc2ccc(cc2)C(=O)N[C@H](CCc2ccccc2)C(=O)N[C@@H](Cc2ccc(-c3ccccc3)cc2)C(=O)N[C@H](Cc2ccccc2)C(=O)N1 [Compound 425] ([d(hPhe)][Bip][dF][Phe(4-COOH)][GABA]-OH; lactam N-4)	30 to 100 µM
O=C1COc2ccc(cc2)C[C@@H](C(=O)O)NC(=O)[C@H](Cc2ccc(O)cc2)NC(=O)[C@@H](Cc2ccc(-c3ccccc3)cc2)NC(=O)[C@H](Cc2cccs2)N1 [Compound 427]	> 100 µM
O=C(O)[C@H](Cc1ccccc1)NC(=O)[C@H]1Cc2ccc(cc2)NC(=O)[C@H](O)[C@@H](O)C(=O)N[C@H](Cc2cccs2)C(=O)N[C@@H](Cc2ccc(-c3ccccc3)cc2)C(=O)N[C@H](CCc2ccccc2)C(=O)N1 [Compound 429]	< 10 µM
O=C(O)[C@H](Cc1ccccc1)NC(=O)[C@H]1Cc2ccc(cc2)NC(=O)[C@H](O)[C@@H](O)C(=O)N[C@H](Cc2cccs2)C(=O)N[C@@H](Cc2ccc(-c3ccccc3)cc2)C(=O)N[C@H](Cc2ccccc2)C(=O)N1 [Compound 430]	10 to 30 µM
O=C(O)[C@H](Cc1ccccc1)NC(=O)[C@H]1Cc2ccc(cc2)NC(=O)[C@H](O)[C@@H](O)C(=O)N[C@H](Cc2cccs2)C(=O)N[C@@H](Cc2ccc(Br)cc2)C(=O)N[C@H](Cc2ccccc2)C(=O)N1 [Compound 431]	> 100 µM
O=C(O)[C@H](Cc1ccccc1)NC(=O)[C@H]1Cc2ccc(cc2)NC(=O)[C@H](O)[C@@H](O)C(=O)N[C@@H](Cc2cccs2)C(=O)N[C@H](Cc2ccc(-c3ccccc3)cc2)C(=O)N[C@@H](CCc2ccccc2)C(=O)N1 [Compound 432]	< 10 µM
O=C(O)[C@H](Cc1ccccc1)NC(=O)[C@@H]1Cc2ccc(cc2)NC(=O)[C@H](O)[C@@H](O)C(=O)N[C@@H](Cc2cccs2)C(=O)N[C@H](Cc2ccc(-c3ccccc3)cc2)C(=O)N[C@@H](CCc2ccccc2)C(=O)N1 [Compound 433]	> 100 µM
O=C(O)[C@H](Cc1ccccc1)NC(=O)[C@H]1Cc2ccc(cc2)NC(=O)[C@H](O)[C@@H](O)C(=O)N[C@@H](Cc2cccs2)C(=O)N[C@H](Cc2ccc(-c3ccccc3)cc2)C(=O)N[C@@H](Cc2ccccc2)C(=O)N1 [Compound 434]	< 10 µM
O=C(O)[C@H](Cc1ccccc1)NC(=O)[C@@H]1Cc2ccc(cc2)NC(=O)[C@H](O)[C@@H](O)C(=O)N[C@@H](Cc2cccs2)C(=O)N[C@H](Cc2ccc(-c3ccccc3)cc2)C(=O)N[C@@H](Cc2ccccc2)C(=O)N1 [Compound 435]	< 10 µM
